# Measured values from patent US20260315462A1, “METHODS OF TREATING RELAPSING MULTIPLE SCLEROSIS USING AN INHIBITOR OF BRUTON'S TYROSINE KINASE” (Genentech, Inc., priority 2023, published 2026).
# Assays:
# [1] = system: new T1-hypointense lesions on MRI; test: New T1-hypointense lesions on MRI, Phase II RMS study (exploratory endpoint); format: in vivo, human
# Excerpt: (§1) This Phase II study was undertaken to evaluate the effect of fenebrutinib on brain magnetic resonance imaging (MRI) in participants with RMS. Participants were randomized to receive either fenebrutinib or placebo. In addition to MRI evaluations, participants were also monitored for other clinical outcomes of disease, including disability progression and MS relapse, as described more fully below.
# (§2) Study Design: This clinical trial comprised a double-blind treatment (DBT) phase, where participants were randomized in a 2:1 ratio to receive either 200 mg BID oral fenebrutinib or non-active placebo, administered for 12 weeks. Participants were directed to self-administer two 100 mg tablets in the morning and two 100 mg tablets in the evening by mouth, for a total dose of 400 mg of fenebrutinib (or placebo) every day.
# (§3) A total of 109 adults aged 18-55 with RMS were enrolled in the study: 73 in the fenebrutinib arm, and 36 in the placebo arm. […] Accordingly, the analysis of outcome for the double blind phase of the study included 70 patients in the fenebrutinib arm, and 36 patients in the placebo arm.
# Exploratory Endpoints: Exploratory endpoints included the total number of new T1-hypointense lesions on MRI at weeks 4, 8, and 12; the fenebrutinib concentration in CSF collected at baseline and at or after Week 12; and plasma pharmacokinetics.
# Results: Exploratory Endpoint-Hypointense T1 Lesions: The number of T1 hypointense lesions was evaluated at Week 4, 8, and 12 as an exploratory endpoint. […] FIG. 4 provides bar graphs illustrating some of the data in this table and providing additional analyses. In this figure, the large arrows indicate the relative reduction (95% confidence interval) of lesions. The proportion of patients with new T1 hypointense lesions is the number of participants that have a new lesion at that specific visit alone divided by the number of participants with a scan at that specific visit alone at the indicated week. There was a 58% reduction and only 3.2% of patients with new hypointense T1 lesions at Week 12.
# [2] = system: new Gd-enhancing T1 lesions and new or enlarging T2-weighted lesions on brain MRI; test: Proportion of participants free from any new Gd-enhancing T1 lesions and new or enlarging T2-weighted lesions on brain MRI, Phase II RMS study (secondary endpoint); format: in vivo, human
# Excerpt: as §1, §2, §3
# (§4) MRI Measurements: The primary efficacy endpoint for this study was the total number of new gadolinium-enhancing T1 (T1Gd+) lesions on brain MRI measured at Weeks 4, 8, and 12 of administration. The secondary efficacy outcomes were (1) the total number of new or enlarging T2-weighted lesions on brain MRI measured at Weeks 4, 8, and 12, and (2) the proportion of participants free from any new Gd-enhancing T1 lesions and new or enlarging T2-weighted lesions observed on brain MRI at Weeks 4, 8, and 12. Radiologic evaluation for the primary efficacy parameter was performed using a standardized MRI protocol at screening, and at Weeks 4, 8, and 12 for each participant.
# Results: Secondary Endpoint-Proportion of Participants Free from any new Gd+ Enhancing T1 Lesions and New or Enlarging T2-weighted Lesions at Weeks 4, 8, and 12: This secondary endpoint was also met, and a summary of the analysis provided in Table 8.
# [3] = system: BCR-dependent B-cell proliferation; settings: in vitro cell-based experiments; cited from earlier work
# [4] = system: BTK; settings: anti-IgM induced BTK Y223 autophosphorylation in human whole blood; previously presented Keaney J, et al. 2019; cited from earlier work
# [5] = system: new gadolinium-enhancing T1 (T1Gd+) lesions on brain MRI; test: New gadolinium-enhancing T1 (T1Gd+) lesions on brain MRI, Phase II RMS study (primary endpoint); format: in vivo, human
# Excerpt: as §1, §2, §3
# as §4, with “participant. […]” for “participant.”
# Results: Primary Endpoint (Total Number of New T1 Gd+ Lesions at Weeks 4, 8, and 12, combined): The primary endpoint of this study was met. In the treatment arm (n=70), a 69% relative reduction in new T1 Gd+ lesions was observed, compared to placebo, with a p value of 0.0022. FIG. 2 provides bar graphs illustrating some of the data in these tables, and providing additional analyses. In this figure, the large arrows indicate the relative reduction (95% confidence interval) of lesions. The proportion of patients with new T1 Gd+ lesions is the number of participants that have a new lesion at that specific visit alone divided by the number of participants with a scan at that specific visit alone at the indicated week. […] There was a 90% reduction and only 3.2% of patients with new T1 Gd+ Lesions lesions at Week 12.
# [6] = Week 12, participants with a new lesion at that visit divided by participants with a scan at that visit
structure (smiles),measurement,setting,value
"C[C@H]1CN(C2COC2)CCN1c1ccc(Nc2cc(-c3ccnc(N4CCn5c(cc6c5CC(C)(C)C6)C4=O)c3CO)cn(C)c2=O)nc1 [Fenebrutinib, (S)-2-(3′-(hydroxymethyl)-1-methyl-5-((5-(2-methyl-4-(oxetan-3-yl)piperazin-1-yl)pyridin-2-yl)amino)-6-oxo-1,6-dihydro-[3,4′-bipyridin]-2′-yl)-7,7-dimethyl-2,3,4,6,7,8-hexahydro-1H-cyclopenta[4,5]pyrrolo[1,2-a]pyrazin-1-one]",effect on T1 hypointense lesions,"[1]; Week 4, 8, and 12, compared to placebo",reduced T1 hypointense lesions at all three time points
same,"proportion of patients with new T1 hypointense lesions, Week 12",[1]; [6],3.2%
same,patients with new T1 hypointense lesions after Week 4,"[1]; after Week 4 of treatment, compared to placebo",few patients had new lesions after Week 4 of treatment
same,"Relative Reduction of T1 hypointense lesions, Week 4","[1]; vs placebo, Week 4, 95% CI −106%, 87%",48%
same,"Relative Reduction of T1 hypointense lesions, Week 8","[1]; vs placebo, Week 8, 95% CI −62%, 92%",64%
same,"Relative Reduction of T1 hypointense lesions, Week 12","[1]; vs placebo, Week 12, 95% CI −131%, 92%",58%
same,"Relative Reduction of T1 hypointense lesions, Weeks 4, 8, and 12","[1]; vs placebo, Weeks 4, 8, and 12, 95% CI −12%, 89%",64%
same,"No. of patients free from T1 Gd+ and T2-weighted lesions, Week 4","[2]; Week 4, N = 70, placebo 21 of 36",51
same,"Proportion free from new T1 Gd+ and new or enlarging T2-weighted lesions, Week 4","[2]; Week 4, N = 70, placebo 58.3%",72.9%
same,"No. of patients free from T1 Gd+ and T2-weighted lesions, Week 8","[2]; Week 8, N = 67, placebo 20 of 34",63
same,"Proportion free from new T1 Gd+ and new or enlarging T2-weighted lesions, Week 8","[2]; Week 8, N = 67, placebo 58.8%",94.0%
same,"No. of patients free from T1 Gd+ and T2-weighted lesions, Week 12","[2]; Week 12, N = 63, placebo 24 of 33",61
same,"Proportion free from new T1 Gd+ and new or enlarging T2-weighted lesions, Week 12","[2]; Week 12, N = 63, placebo 72.7%",96.8%
same,No. of patients who are free from new T1 Gd+ and New or Enlarging T2-weighted Lesions During DBT,"[2]; overall, weeks 4, 8, and 12, N = 70, placebo 18",51
same,"Proportion of patients free from new T1 Gd+ and new or enlarging T2-weighted lesions, overall","[2]; overall, weeks 4, 8, and 12, N = 70, placebo 50.0%",72.9%
same,"Odds Ratio, adjusted (free from new T1 Gd+ and new or enlarging T2-weighted lesions)","[2]; vs placebo, weeks 4, 8, and 12, 95% CI (exact) (1.317, 13.078), p-value (exact) 0.0117",4.005
same,likelihood to be free from new T1 Gd+ lesions and new or enlarging T2-weighted lesions,"[2]; weeks 4, 8, and 12, compared to placebo group",four times more likely to be free from new T1 Gd+ lesions and new or enlarging T2-weighted lesions
same,BCR-dependent B-cell proliferation,[3],inhibition of BCR-dependent B-cell proliferation
same,"IC90, phospho-BTK",[4],0.0404 µg/mL
same,"Number of New T1 Gd+ Lesions, Mean (SD), Week 4","[5]; 200 mg BID oral, Week 4, n = 70, min-max 0-4, placebo 0.389 (0.871)",0.343 (0.849)
same,"Number of New T1 Gd+ Lesions, Mean (SD), Week 8","[5]; 200 mg BID oral, Week 8, n = 67, min-max 0-3, placebo 0.441 (0.960)",0.045 (0.367)
same,"Number of New T1 Gd+ Lesions, Mean (SD), Week 12","[5]; 200 mg BID oral, Week 12, n = 63, min-max 0-1, placebo 0.273 (0.674)",0.032 (0.177)
same,Total Number of New T1Gd+ Lesions,"[5]; 200 mg BID oral, Weeks 4, 8, and 12 combined, N = 70, 201 scans, placebo 38",29
same,"New T1Gd+ Lesion rate, adjusted","[5]; 200 mg BID oral, Weeks 4, 8, and 12 combined, Negative Binomial regression model, placebo 0.245",0.077
same,"New T1Gd+ Lesion rate, unadjusted","[5]; 200 mg BID oral, Weeks 4, 8, and 12 combined, total lesions divided by total number of scans, placebo 0.369",0.144
same,"proportion of patients with new T1 Gd+ lesions, Week 12",[5]; [6],3.2%
same,patients with new T1 Gd+ lesions after week four,[5]; after week four of treatment,Few patients had new lesions after week four of treatment
same,"Relative Reduction of total number of new T1 Gd+ lesions, Week 4","[5]; vs placebo, Week 4, 95% CI −92%, 68%",22%
same,"Relative Reduction of total number of new T1 Gd+ lesions, Week 8","[5]; vs placebo, Week 8, 95% CI 65%, 98%",92%
same,"Relative Reduction of total number of new T1 Gd+ lesions, Week 12","[5]; vs placebo, Week 12, 95% CI 52%, 98%",90%
same,"Rate Ratio, adjusted (new T1Gd+ lesions)","[5]; vs placebo, Weeks 4, 8, and 12 combined, 95% CI (0.149, 0.658)",0.313
same,Relative Reduction in new T1 Gd+ lesions,"[5]; vs placebo, Weeks 4, 8, and 12 combined, 95% CI (34%, 85%), p-value 0.0022",69%
same,"Relative Reduction of total number of new T1 Gd+ lesions, Weeks 8 and 12","[5]; vs placebo, Weeks 8 and 12",92%
